Measurements from patent US5527804A, “4-carbamoyloxy-piperidine-1-carboxylic acid esters: inhibitors or cholesterol absorption” (American Home Products Corporation, priority 1994, dated 1996).
Where two headings read alike, the source gives them in different places.

Columns and labels:
[1] = target: T1, cholesterol esterase (EC 3.1.1.13), CEH (Bos taurus, UniProt P30122); assay: In vitro inhibition of cholesteryl ester formation by cholesterol esterase (CEH); assay type: biochemical
T1 construct: purchased Sigma Company, St. Louis, Mo; C-1892; host or cells: bovine pancreas
T1 sequence (P30122 19-597): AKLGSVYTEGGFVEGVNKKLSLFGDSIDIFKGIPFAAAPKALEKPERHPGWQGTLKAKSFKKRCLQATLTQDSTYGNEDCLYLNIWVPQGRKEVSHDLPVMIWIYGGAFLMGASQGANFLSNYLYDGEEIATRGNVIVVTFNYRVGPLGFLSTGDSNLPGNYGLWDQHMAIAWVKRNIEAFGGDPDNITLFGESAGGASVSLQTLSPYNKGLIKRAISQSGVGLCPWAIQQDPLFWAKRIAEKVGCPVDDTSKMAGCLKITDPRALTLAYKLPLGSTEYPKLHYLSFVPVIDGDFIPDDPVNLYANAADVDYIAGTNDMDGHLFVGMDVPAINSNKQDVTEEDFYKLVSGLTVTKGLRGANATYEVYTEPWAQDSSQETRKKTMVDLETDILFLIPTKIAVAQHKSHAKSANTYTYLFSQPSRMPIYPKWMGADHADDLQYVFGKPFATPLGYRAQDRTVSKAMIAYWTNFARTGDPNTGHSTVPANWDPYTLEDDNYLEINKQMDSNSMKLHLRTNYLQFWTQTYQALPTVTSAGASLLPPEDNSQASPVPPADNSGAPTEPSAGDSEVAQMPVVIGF
Protocol: In Vitro Assay: The ability of the compounds of this invention to inhibit the formation of cholesteryl esters and thereby interfere with and prevent assimilation of cholesterol into the lymphatic system and ultimately the blood stream was established by incubating the compounds at 37° C. with a mixture of cholesterol and oleic acid in the presence of buffered cholesterol esterase [(EC 3.1.1.13) Sigma Company, St. Louis, Mo., U.S.A., No. C-1892, from bovine pancreas] and measuring the amount of ester formed, according to the procedure of Field, J. of Lipid Research, 25, 389 (1984).

[2] = tested on: absorption of 14C-cholesterol; assay: In vivo cholesterol absorption, serum radioactivity after oral [4-14C] cholesterol; design: species or system normal rats; conditions: normal rat, 6 hr, vs control
Protocol: In Vivo Assay: The in vivo cholesterol absorption studies were conducted in normal rats by oral administration of the compound being tested in propylene glycol and olive oil followed by oral administration of [4-^14 C] cholesterol in propylene glycol and olive oil, otherwise following the procedure of Cayen et al., J. Lipid Res. 20, 162 (1979). The serum radioactivity was measured at six hours after dosing. The results of this study are reported in Table I as percent decrease compared to control.

[3] = IC25 instead of IC50; 37° C.; cholesterol + oleic acid; bovine pancreas enzyme
[4] = 37° C.; cholesterol + oleic acid; bovine pancreas enzyme; read-out: In Vitro Results IC50 CEH

SMILES	IC25 [1, 3]	Effect on Absorption of 14C-Chol, % Decrease ([2]; 10 mg/kg)	IC50 [1, 4]	IC50 ([1]; read-out: In Vitro Results IC50 CEH; 37° C.; cholesterol + oleic acid; bovine pancreas enzyme)	Effect on Absorption of 14C-Chol, % Decrease ([2]; 3 mg/kg)
O=C(NCCCCCCOC(=O)N1CCC(OC(=O)N2CCC3(CCCC3)CC2)CC1)Oc1ccc(Oc2ccccc2)cc1 [Example 7, 8-Aza-spiro[4.5]decane-8-carboxylic acid 1-{6-[(4-phenoxy-phenyl)-oxycarbonylamino]-hexyloxycarbonyl}-piperidin-4-yl ester]	200 nM	50%	–	–	–
O=C(NCCCCCCOC(=O)N1CCC(OC(=O)N2CCCCC2)CC1)Oc1ccc(Oc2ccccc2)cc1 [Example 11, 4-(Piperidine-1-carbonyloxy)-piperidine-1-carboxylic acid 6-[(4-phenoxy-phenyl)oxycarbonylamino]-hexyl ester]	–	81%	5900 nM	–	–
O=C(NCCCCCCOC(=O)N1CCC(OC(=O)NC2CCCCC2)CC1)Oc1ccc(Oc2ccccc2)cc1 [Example 9, 4-(Cyclohexylcarbamoyloxy)-piperidine-1-carboxylic acid 6-[(4-phenoxy-phenyl)-oxycarbonylamino]-hexyl ester]	300 nM	46%	–	–	–
O=C(NCCCCCCOC(=O)N1CCC(OC(=O)NCCCCc2ccccc2)CC1)Oc1ccc(Oc2ccccc2)cc1 [Example 10, 4-(4-Phenyl-butyl-carbamoyloxy)-piperidine-1-carboxylic acid 6-[(4-phenoxy-phenyl)-oxycarbonylamino]-hexyl ester]	300 nM	61%	–	–	–
CCCCCCNC(=O)OC1CCN(C(=O)OCCCCCCNC(=O)Oc2ccc(Oc3ccccc3)cc2)CC1 [Example 6, 4-(Hexylcarbamoyloxy)-piperidine-1-carboxylic acid 6-[(4-phenoxy-phenyl)-oxycarbonylamino]-hexyl ester]	–	–	–	1100 nM	49%
CCCCCCCCCCNC(=O)OC1CCN(C(=O)OCCCCCCNC(=O)Oc2ccc(Oc3ccccc3)cc2)CC1 [Example 8, 4-(Decylcarbamoyloxy)-piperidine-1-carboxylic acid 6-[(4-phenoxy-phenyl)-oxycarbonylamino]-hexyl ester]	–	43%	3000 nM	–	–
